Key:
Experiment in all cases: biochemical
Type in all cases: biochemical
382 unique human kinases [1] = molecular target: T1, 382 unique human kinases (Homo sapiens, UniProt O95835); conditions: LATS1, 10 uM; for remaining activity at 10 µM: read-out: % Enzyme Activity (relative to DMSO controls)
T1 construct: purchased Reaction Biology (HotSpot contract assay)
T1 sequence (O95835 1-1130): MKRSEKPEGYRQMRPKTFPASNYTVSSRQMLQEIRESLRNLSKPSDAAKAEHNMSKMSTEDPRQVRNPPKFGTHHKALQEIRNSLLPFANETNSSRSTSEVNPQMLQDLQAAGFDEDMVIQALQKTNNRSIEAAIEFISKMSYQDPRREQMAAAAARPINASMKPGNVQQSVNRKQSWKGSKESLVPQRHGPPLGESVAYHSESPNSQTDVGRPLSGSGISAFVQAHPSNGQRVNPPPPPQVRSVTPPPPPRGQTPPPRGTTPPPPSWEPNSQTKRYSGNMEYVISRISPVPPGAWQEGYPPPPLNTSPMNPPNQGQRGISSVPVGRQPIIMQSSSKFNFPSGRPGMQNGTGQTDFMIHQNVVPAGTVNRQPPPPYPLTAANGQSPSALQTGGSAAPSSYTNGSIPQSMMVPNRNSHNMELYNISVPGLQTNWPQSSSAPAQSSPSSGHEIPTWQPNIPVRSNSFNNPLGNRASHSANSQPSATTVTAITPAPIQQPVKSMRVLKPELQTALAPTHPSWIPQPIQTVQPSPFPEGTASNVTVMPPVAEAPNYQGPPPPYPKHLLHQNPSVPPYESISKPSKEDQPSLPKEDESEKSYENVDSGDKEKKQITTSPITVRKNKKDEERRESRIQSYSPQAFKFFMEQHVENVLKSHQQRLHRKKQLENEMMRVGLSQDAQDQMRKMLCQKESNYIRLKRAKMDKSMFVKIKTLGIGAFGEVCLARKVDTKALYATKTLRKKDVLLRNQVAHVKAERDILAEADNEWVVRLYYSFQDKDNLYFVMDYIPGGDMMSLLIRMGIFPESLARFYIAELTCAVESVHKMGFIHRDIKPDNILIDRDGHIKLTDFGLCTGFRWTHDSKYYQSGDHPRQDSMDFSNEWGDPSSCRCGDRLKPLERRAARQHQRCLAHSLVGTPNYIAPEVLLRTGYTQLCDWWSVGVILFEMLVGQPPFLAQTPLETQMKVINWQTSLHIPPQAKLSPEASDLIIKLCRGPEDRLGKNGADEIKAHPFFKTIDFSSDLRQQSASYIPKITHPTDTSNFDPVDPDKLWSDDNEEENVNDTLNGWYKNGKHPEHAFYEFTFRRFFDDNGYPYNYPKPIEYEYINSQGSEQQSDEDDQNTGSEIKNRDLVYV

382 unique human kinases [2] = molecular target: T2, 382 unique human kinases (Homo sapiens, UniProt P00519, H396P); conditions: ABL1 (H396P), [ATP] 15 µM, compound 10 uM; for remaining activity at 10 µM: read-out: % Enzyme Activity (relative to DMSO controls)
T2 construct: purchased Reaction Biology (HotSpot contract assay)

382 unique human kinases [3] = molecular target: T3, 382 unique human kinases (Homo sapiens, UniProt Q05655); conditions: PKCd, 10 uM; for remaining activity at 10 µM: read-out: % Enzyme Activity (relative to DMSO controls)
T3 construct: purchased Reaction Biology (HotSpot contract assay)
T3 sequence (Q05655 whole entry): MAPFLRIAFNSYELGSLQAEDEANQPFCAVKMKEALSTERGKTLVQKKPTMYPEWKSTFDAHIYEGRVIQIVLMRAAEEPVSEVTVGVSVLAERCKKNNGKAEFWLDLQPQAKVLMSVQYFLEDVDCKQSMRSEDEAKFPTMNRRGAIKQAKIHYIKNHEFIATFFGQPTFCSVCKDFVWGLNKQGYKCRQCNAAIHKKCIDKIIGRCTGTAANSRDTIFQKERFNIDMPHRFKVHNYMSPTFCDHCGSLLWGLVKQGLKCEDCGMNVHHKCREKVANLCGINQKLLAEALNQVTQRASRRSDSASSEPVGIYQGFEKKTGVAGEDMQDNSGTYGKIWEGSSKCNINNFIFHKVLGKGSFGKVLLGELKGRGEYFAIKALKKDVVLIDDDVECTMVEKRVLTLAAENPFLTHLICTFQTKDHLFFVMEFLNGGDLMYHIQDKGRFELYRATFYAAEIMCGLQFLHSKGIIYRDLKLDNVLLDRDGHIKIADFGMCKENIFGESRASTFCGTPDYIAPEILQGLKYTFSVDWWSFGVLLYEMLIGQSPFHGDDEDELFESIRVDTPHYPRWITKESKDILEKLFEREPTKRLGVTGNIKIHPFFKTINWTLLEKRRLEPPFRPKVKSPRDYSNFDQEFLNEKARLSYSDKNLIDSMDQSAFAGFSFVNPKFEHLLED

382 unique human kinases [4] = molecular target: T4, 382 unique human kinases (Homo sapiens, UniProt Q13555); conditions: CAMK2g, 10 uM; for remaining activity at 10 µM: read-out: % Enzyme Activity (relative to DMSO controls)
T4 construct: purchased Reaction Biology (HotSpot contract assay)
T4 sequence (Q13555 whole entry): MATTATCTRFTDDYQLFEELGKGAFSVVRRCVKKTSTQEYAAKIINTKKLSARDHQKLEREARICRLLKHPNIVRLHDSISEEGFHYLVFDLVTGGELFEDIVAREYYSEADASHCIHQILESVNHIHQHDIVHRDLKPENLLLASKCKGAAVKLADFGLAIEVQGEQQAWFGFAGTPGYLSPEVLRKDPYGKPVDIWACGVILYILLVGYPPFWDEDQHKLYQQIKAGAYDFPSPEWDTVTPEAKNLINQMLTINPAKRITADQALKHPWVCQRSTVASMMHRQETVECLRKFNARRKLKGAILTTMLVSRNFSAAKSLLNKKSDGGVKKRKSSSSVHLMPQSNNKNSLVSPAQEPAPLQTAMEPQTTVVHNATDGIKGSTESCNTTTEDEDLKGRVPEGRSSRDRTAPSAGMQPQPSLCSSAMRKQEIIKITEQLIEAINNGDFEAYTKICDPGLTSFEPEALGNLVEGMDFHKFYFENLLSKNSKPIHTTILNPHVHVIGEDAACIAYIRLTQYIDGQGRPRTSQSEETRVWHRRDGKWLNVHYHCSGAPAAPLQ

382 unique human kinases [5] = molecular target: T5, 382 unique human kinases (Homo sapiens, UniProt Q9H792); conditions: PEAK1, [ATP] 30 µM
T5 construct: purchased Reaction Biology (HotSpot contract assay)
T5 sequence (Q9H792 whole entry): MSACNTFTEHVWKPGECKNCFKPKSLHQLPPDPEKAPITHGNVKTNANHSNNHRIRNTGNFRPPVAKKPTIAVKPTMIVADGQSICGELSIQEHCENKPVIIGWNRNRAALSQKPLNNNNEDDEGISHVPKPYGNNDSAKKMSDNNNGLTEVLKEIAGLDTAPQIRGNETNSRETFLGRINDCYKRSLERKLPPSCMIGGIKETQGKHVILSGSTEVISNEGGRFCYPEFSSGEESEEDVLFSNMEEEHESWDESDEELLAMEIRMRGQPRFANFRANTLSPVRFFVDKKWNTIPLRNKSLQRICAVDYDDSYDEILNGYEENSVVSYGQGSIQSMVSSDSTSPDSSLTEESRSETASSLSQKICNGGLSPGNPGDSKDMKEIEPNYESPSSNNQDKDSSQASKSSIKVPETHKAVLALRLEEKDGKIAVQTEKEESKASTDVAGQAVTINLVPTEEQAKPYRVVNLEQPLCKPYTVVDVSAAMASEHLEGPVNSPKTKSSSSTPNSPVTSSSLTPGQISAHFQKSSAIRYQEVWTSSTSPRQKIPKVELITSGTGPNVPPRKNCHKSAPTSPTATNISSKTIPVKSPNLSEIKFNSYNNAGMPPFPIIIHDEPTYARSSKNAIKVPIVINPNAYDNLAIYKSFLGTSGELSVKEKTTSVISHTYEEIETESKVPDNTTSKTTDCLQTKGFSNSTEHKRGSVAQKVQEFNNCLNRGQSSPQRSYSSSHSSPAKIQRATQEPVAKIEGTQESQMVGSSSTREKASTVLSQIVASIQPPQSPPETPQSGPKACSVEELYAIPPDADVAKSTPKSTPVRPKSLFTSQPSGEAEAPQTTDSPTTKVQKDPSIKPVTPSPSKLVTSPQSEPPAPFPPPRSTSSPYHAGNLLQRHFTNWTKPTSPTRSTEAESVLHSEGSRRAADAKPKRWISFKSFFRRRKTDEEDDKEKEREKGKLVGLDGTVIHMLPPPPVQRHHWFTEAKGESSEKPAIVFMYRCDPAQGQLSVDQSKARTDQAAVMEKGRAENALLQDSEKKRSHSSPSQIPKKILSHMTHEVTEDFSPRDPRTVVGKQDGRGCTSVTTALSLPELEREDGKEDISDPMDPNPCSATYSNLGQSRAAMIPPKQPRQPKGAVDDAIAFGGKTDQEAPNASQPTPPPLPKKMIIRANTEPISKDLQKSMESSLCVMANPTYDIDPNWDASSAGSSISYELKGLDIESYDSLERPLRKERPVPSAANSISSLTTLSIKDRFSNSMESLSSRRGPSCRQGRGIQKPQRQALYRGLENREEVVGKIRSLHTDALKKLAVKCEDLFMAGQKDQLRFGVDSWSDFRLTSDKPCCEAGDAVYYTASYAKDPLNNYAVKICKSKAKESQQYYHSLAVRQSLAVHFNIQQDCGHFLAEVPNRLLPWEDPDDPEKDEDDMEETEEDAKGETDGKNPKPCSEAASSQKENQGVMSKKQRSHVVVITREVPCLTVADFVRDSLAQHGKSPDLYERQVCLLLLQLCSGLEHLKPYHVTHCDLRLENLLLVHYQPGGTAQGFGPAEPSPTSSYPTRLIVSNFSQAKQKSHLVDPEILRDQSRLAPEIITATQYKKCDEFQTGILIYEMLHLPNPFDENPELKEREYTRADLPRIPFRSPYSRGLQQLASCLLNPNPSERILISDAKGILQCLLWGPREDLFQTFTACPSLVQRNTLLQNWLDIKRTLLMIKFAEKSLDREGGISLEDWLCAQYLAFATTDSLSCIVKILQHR

382 unique human kinases [6] = molecular target: T6, 382 unique human kinases (Homo sapiens, UniProt P08581, F1200I); conditions: kinase c-MET (F1200I), compound 10 uM; for remaining activity at 10 µM: read-out: % Enzyme Activity (relative to DMSO controls)
T6 construct: purchased Reaction Biology (HotSpot contract assay)

382 unique human kinases [7] = molecular target: T7, 382 unique human kinases (Homo sapiens, UniProt P29320); conditions: EPHA3, 10 uM; for remaining activity at 10 µM: read-out: % Enzyme Activity (relative to DMSO controls)
T7 construct: purchased Reaction Biology (HotSpot contract assay)
T7 sequence (P29320 21-983): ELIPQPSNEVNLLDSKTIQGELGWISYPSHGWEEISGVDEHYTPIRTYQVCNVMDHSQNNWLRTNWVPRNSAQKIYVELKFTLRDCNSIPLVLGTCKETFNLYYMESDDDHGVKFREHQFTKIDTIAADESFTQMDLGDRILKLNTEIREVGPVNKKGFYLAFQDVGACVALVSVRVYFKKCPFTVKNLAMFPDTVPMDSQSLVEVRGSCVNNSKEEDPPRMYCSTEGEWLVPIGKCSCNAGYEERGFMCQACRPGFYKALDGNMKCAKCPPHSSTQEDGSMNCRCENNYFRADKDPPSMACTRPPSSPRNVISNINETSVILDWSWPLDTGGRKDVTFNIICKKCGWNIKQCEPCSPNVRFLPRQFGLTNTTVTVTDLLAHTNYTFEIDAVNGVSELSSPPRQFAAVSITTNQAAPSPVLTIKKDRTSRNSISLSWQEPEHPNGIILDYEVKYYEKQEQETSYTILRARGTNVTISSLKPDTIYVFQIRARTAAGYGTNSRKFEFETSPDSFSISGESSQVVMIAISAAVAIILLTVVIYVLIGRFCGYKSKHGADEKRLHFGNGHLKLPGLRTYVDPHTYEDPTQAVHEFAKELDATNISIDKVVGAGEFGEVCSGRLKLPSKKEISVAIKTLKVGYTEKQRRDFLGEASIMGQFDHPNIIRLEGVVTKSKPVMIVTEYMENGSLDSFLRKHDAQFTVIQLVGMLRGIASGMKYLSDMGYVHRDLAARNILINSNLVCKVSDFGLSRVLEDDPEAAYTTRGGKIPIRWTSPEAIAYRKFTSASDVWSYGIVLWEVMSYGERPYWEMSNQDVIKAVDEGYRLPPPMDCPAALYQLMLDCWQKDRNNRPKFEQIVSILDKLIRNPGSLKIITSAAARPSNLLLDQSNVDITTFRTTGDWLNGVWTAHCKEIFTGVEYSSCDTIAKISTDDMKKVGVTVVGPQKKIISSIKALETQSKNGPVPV

382 unique human kinases [8] = molecular target: T8, 382 unique human kinases (Homo sapiens, UniProt Q9UBS0); conditions: kinase p70S6Kb/RPS6KB2, compound 10 uM; for remaining activity at 10 µM: read-out: % Enzyme Activity (relative to DMSO controls)
T8 construct: purchased Reaction Biology (HotSpot contract assay)
T8 sequence (Q9UBS0 whole entry): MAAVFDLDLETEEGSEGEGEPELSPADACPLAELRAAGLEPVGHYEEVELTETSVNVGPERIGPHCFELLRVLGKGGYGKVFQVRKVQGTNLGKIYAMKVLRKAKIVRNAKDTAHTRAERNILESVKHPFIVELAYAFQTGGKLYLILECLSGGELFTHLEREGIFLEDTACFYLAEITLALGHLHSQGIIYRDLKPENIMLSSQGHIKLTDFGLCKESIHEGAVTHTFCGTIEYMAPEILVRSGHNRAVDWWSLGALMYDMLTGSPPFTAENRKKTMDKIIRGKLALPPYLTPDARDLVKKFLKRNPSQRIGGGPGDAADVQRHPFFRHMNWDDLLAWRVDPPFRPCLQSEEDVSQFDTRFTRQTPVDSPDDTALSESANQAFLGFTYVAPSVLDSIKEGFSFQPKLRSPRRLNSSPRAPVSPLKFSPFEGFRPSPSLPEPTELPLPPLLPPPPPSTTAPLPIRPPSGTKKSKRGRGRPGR

382 unique human kinases [9] = molecular target: T9, 382 unique human kinases (Homo sapiens, UniProt Q9Y4K4); conditions: kinase KHS/MAP4K5, compound 10 uM; for remaining activity at 10 µM: read-out: % Enzyme Activity (relative to DMSO controls)
T9 construct: purchased Reaction Biology (HotSpot contract assay)
T9 sequence (Q9Y4K4 whole entry): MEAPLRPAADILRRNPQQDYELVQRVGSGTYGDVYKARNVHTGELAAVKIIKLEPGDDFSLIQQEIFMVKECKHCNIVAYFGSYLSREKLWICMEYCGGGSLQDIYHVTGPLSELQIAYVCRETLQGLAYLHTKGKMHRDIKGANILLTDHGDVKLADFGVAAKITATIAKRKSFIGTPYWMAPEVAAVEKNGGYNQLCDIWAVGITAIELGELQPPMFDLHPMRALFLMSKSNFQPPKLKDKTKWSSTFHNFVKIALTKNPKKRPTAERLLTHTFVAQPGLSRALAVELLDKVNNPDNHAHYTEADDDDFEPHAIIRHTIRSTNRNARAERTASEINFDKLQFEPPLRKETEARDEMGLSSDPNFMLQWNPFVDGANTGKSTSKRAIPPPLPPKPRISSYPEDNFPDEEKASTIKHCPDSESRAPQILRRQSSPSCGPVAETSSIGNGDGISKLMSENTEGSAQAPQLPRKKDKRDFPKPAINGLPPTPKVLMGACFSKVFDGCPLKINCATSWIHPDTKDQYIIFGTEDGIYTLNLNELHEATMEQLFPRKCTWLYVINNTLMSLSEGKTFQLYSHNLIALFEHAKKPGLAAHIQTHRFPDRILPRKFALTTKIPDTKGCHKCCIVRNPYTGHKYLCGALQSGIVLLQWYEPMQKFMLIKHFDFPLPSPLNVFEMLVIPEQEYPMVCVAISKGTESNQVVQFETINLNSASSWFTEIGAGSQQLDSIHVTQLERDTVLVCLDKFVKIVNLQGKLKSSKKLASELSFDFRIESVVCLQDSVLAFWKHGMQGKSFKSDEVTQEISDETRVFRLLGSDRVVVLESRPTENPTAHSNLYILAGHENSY

[10] = compound 10 uM, read-out: % Enzyme Activity (relative to DMSO controls)

Row | Structure (SMILES) | % Enzyme Activity (relative to DMSO controls) (382 unique human kinases [1]) [%] | remaining activity at 10 µM (382 unique human kinases [1]) [%] | % Enzyme Activity (relative to DMSO controls) (382 unique human kinases [2]) [%] | remaining activity at 10 µM (382 unique human kinases [2]) [%] | % Enzyme Activity (relative to DMSO controls) (382 unique human kinases [3]) [%] | remaining activity at 10 µM (382 unique human kinases [3]) [%] | % Enzyme Activity (relative to DMSO controls) (382 unique human kinases [4]) [%] | remaining activity at 10 µM (382 unique human kinases [4]) [%] | % Enzyme Activity (relative to DMSO controls) (382 unique human kinases [5]; compound 10 uM) [%] | remaining activity at 10 µM (382 unique human kinases [5]; [10]) [%] | remaining activity at 10 µM (382 unique human kinases [6]) [%] | remaining activity at 10 µM (382 unique human kinases [7]) [%] | remaining activity at 10 µM (382 unique human kinases [8]) [%] | remaining activity at 10 µM (382 unique human kinases [9]) [%] | % Enzyme Activity (relative to DMSO controls) (382 unique human kinases [6]) [%] | % Enzyme Activity (relative to DMSO controls) (382 unique human kinases [7]) [%] | % Enzyme Activity (relative to DMSO controls) (382 unique human kinases [8]) [%] | % Enzyme Activity (relative to DMSO controls) (382 unique human kinases [9]) [%] | remaining activity at 1 µM (382 unique human kinases [5]; compound 1 uM, read-out: % Enzyme Activity (relative to DMSO controls)) [%]
1 | CCNC(=O)c1noc(-c2cc(C(C)C)c(O)cc2O)c1-c1ccc(CN2CCOCC2)cc1 [Luminespib] | 98.44 | 98.6 | 6.11 | 6.74 | 95.84 | 96.4 | 105.88 | 106 | 29.19 | 30.1 |  |  |  |  |  |  |  |  | 
2 | CC(C)c1cc(-c2n[nH]c(=O)n2-c2ccc3c(ccn3C)c2)c(O)cc1O [Ganetespib (STA9090)] |  |  |  |  |  |  |  |  |  |  | 86.5 | 73.7 | 96.6 | 80.6 |  |  |  |  | 
3 | CCNC(=O)c1noc(-c2cc(C(C)C)c(O)cc2O)c1-c1ccc(CN2CCOCC2)cc1 [Luminespib (AUY-922)] |  |  |  |  |  |  |  |  |  |  | 100 | 104 | 113 | 93.5 | 100.14 | 100.00 | 108.19 | 91.62 | 
4 | CC(C)c1cc(-c2n[nH]c(=O)n2-c2ccc3c(ccn3C)c2)c(O)cc1O [Ganetespib] |  | 95.5 |  | 2.43 |  | 92 |  | 98.8 |  | 10.2 |  |  |  |  |  |  |  |  | 43.5

From article PMC8550792, “Evolution of kinase polypharmacology across HSP90 drug discovery” (Cell Chemical Biology, 2021)
